# Where a name gives a salt, the structure may show the parent alone.
# What was measured:
# [1] = test system: nitrotyrosine immunoreactivity in the noise-exposed cochlea; experiment: Nitrotyrosine immunohistochemistry, semi-quantitative, noise-exposed cochleae treated topically (Experiment 3); assay type: in vivo, Wistar rats; conditions: middle turn, adenosine 10 mM or CCPA 1 mM onto RWM, p<0.01
# From the text: No immunostaining was detected when the nitrotyrosine antibody was omitted. (B). Semi-quantitative analysis of nitrotyrosine immunoreactivity. Abbreviations: cc, Claudius cells; dc, Deiters' cells; hc, Hensen's cells; idc, interdental cells; is, inner sulcus cells; ihc, inner hair cells; ohc, outer hair cells; opc, outer pillar cells. Scale bars: 50 μm. Data are expressed as means±SEM (n=4 animals per group). **p<0.01; ***p<0.001; one way ANOVA with Tukey's multiple comparison test.
# Nitrotyrosine formation in the noise-exposed cochlea was assessed by immunohistochemistry. […] Immunoperoxidase reaction was detected using a secondary biotin-conjugated goat anti-rabbit IgG, followed by reaction visualisation using an avidin-biotin-peroxidase complex (ABC kit, Vector Laboratories) and diaminobenzidine (DAB kit, Vector). […] Images were analyzed using identical acquisition parameters and immunolabeling was semi-quantified using ImageJ software (v.1.38x, NIH, USA). […] Regions of interest were selected and their immunostaining intensity histograms obtained and expressed as mean pixel intensity after greyscale conversion. Between 15 and 32 images of the middle cochlear turn were analyzed in each group (n=4 animals per group) in a double-blind manner.
# [2] = test system: inner hair cell receptor potential; experiment: Summating potential (SP) thresholds during cochlear perfusion, ambient noise levels; assay type: in vivo, Wistar rats; conditions: for effect on SP thresholds: RWM perfusion 90 minutes, adenosine 10 mM, CCPA 1 mM, rats at ambient noise
# Experimental: SP thresholds, representing the inner hair cell receptor potential, were measured at frequencies ranging from 4-26 kHz prior to perfusion of artificial perilymph (AP; baseline), after AP perfusion and after perfusion with adenosine receptor agonists adenosine and CCPA. Data presented as mean±SEM (n=8). *p<0.05 **p<0.01, one way ANOVA with Tukey's multiple comparison test. AP, artificial perilymph (control); adenosine (10 mM), non-selective adenosine receptor agonist; CCPA (1 mM), selective A1 adenosine receptor agonist; CGS-21680 (0.2 mM), selective A2A receptor agonist; SCH-58261, selective A2A receptor antagonist.
# (§1) As a foundation for the noise studies and to determine the general effect of selective adenosine receptor agonists on the cochlea, auditory function was first evaluated in control animals using the summating potential (SP; measure of the inner hair cell receptor potential) and the compound action potential (CAP; measure of the neural afferent output). This was undertaken to determine the background influence of adenosine receptor activation in the normal cochlea as a platform for the studies in noise-exposed animals.
# Animals were anaesthetized (sodium pentobarbital; 60 mg/kg i.p.) and placed on a thermostatically regulated blanket connected to a remote homeothermal control unit (Harvard Apparatus, Holliston, Mass., USA) to maintain stable body temperature (37.5° C.) via a rectal thermocouple probe (Harvard Apparatus). The head of the animal was placed on a heated (38° C. surface temperature) stereotaxic head-holder, connected to a heat block temperature controller (Bio-Medical Engineering Services, University of Auckland, New Zealand). The animals were artificially ventilated and the auditory bulla was exposed using a ventrolateral approach. The perfusion line was inserted close to the round window membrane (RWM). The RWM was perfused with test solutions containing A1, or A2A adenosine receptor agonists at […] using a Harvard Apparatus Series PHD 22/2000 syringe pump. Adenosine receptor agonists adenosine (10 mM), CCPA (1 mM), CGS-21680 (200 μM), alone or in combination with adenosine receptor antagonist SCH-58261 (200 μM), were perfused for 90 minutes. Sound-evoked cochlear responses (CAP and SP) to pure tone stimuli (4-28 kHz) were recorded from a silver wire electrode placed onto the cochlear round window. These responses were measured using a Tucker-Davis System II for the presentation of tone stimuli and acquisition of the electrical potentials via a Grass P16 Pre-amplifier.
# [3] = test system: rats exposed to broad band noise for 24 hours at 110 dBSPL; experiment: ABR after broad band noise, adenosine receptor agonists delivered onto the round window membrane (Experiment 3); assay type: in vivo, Wistar rats; conditions: for post-treatment ABR thresholds for clicks and pure tones: 48 hours after administration to the RWM, CGS-21680 200 μM; for post-treatment ABR thresholds for clicks and pure tones / ABR threshold recovery for clicks: adenosine 10 mM; for post-treatment ABR thresholds for clicks and pure tones / ABR threshold recovery for pure tones (up to) / ABR threshold recovery for clicks: CCPA 1 mM; for ABR threshold recovery for pure tones (up to) / ABR threshold recovery for clicks: single dose onto RWM 6 hours after noise, ABR 48 hours after treatment; for ABR threshold recovery for pure tones (up to): adenosine 10 mM (16 kHz)
# Experimental: ABRs were measured in response to auditory clicks (a) and pure tones (b-e) before noise exposure (baseline), 30 minutes after noise exposure (pre-treatment) and 48 hours after administration of adenosine receptor agonists (post-treatment). All drugs were delivered onto the cochlear round window membrane (f) Threshold recovery is defined as ABR post-treatment minus ABR pre-treatment. Data are expressed as means±SEM (n=8). *p<0.05; **p<0.01; ***p<0.001; one way ANOVA with Tukey's multiple comparison test. AP, artificial perilymph (control); adenosine (10 mM), non-selective adenosine receptor agonist; CCPA (1 mM), selective A1 adenosine receptor agonist; CGS-21680 (0.2 mM), selective A2A receptor agonist.
# Rats were exposed to a broadband noise presented for 24 hours at 90, 100, or 110 dBSPL. Noise exposures were carried out in a custom-built acoustic chamber (Shelburg Acoustics, Sydney, Australia) with internal speakers and external controls (sound generator and frequency selector). The sound levels in the cage were measured using a calibrated Rion NL-49 sound level meter to ensure minimal deviations of sound intensity. The animals had free access to food and water during the exposure.
# Auditory thresholds in noise-exposed animals were measured using auditory brainstem responses (ABR), which represent the sound evoked potentials from the auditory nerve and brainstem auditory nuclei. ABR measurements were recorded at least 24 hours prior to noise exposure (baseline) and then 30 min after noise exposure (pre-treatment). Adenosine receptor agonists or vehicle control were then delivered to the cochlear round window (around 6 hours post-noise) and ABR measurement was then repeated 48 hours after drug administration (post-treatment). ABR measurements were performed in a sound attenuator chamber (Shelburg Acoustics, Sydney, Australia). The rats were anesthetized with ketamine (75 mg/kg) and xylazine (10 mg/kg) and their body temperature was maintained at 38° C. with a heating pad as described. ABRs were obtained by placing fine platinum electrodes subdermally at the mastoid region of the ear of interest (active electrode), scalp vertex (reference) and mastoid region of the opposite ear (ground electrode). A series of auditory clicks or pure tones (4-28 kHz) presented at varying intensity and thresholds generated electrical activity reflecting differing levels of auditory processing. The sound threshold of the ABR complex (waves I-IV) were determined by progressively attenuating the sound intensity until the waveform was no longer observed. The acoustic stimuli for ABR were produced, and the responses, recorded, using a Tucker-Davis Technologies auditory physiology workstation (Alachua, Fla., USA) controlled by computer-based digital signal processing package and software (BioSig, Alachua, Fla., USA). ABR potentials were evoked with digitally produced 5 ms tone pips (0.5 ms rise-fall time) at frequencies between 4 and 28 kHz in half-octave steps. Sound pressure level (SPL) was raised in 5 dB steps starting from 10 dB below threshold level to 90 dB SPL. Responses were averaged at each sound level (1024 repeats with stimulus polarity alternated), and response waveforms were discarded when peak-to-peak amplitude exceeded 15 μV (artefact reject). The ABR threshold was defined as the lowest intensity (to the nearest 5 dB) at which a response could be visually detected above the noise floor. The animals were euthanised after hearing assessment and the cochleae collected for immunohistochemical assessment of free radical damage.
# Six hours after exposure to broad band noise (110 dBSPL for 24 hours), adenosine receptor agonists were delivered to the round window membrane (RWM) in the left cochlea, whilst the contralateral ear served as untreated control. […]
# noise-exposed cochlea = conditions: pre-treatment (prophylactic), reference [6], cited from earlier work
# [4] = test system: neural afferent output of the cochlea; experiment: Compound action potential (CAP) thresholds during cochlear perfusion, ambient noise levels; assay type: in vivo, Wistar rats; conditions: RWM perfusion; data not shown
# From the text: as §1
# Animals were anaesthetized (sodium pentobarbital; 60 mg/kg i.p.) and placed on a thermostatically regulated blanket connected to a remote homeothermal control unit (Harvard Apparatus, Holliston, Mass., USA) to maintain stable body temperature (37.5° C.) via a rectal thermocouple probe (Harvard Apparatus). The head of the animal was placed on a heated (38° C. surface temperature) stereotaxic head-holder, connected to a heat block temperature controller (Bio-Medical Engineering Services, University of Auckland, New Zealand). […] Sound-evoked cochlear responses (CAP and SP) to pure tone stimuli (4-28 kHz) were recorded from a silver wire electrode placed onto the cochlear round window. These responses were measured using a Tucker-Davis System II for the presentation of tone stimuli and acquisition of the electrical potentials via a Grass P16 Pre-amplifier.
Structure (SMILES),reduction of nitrotyrosine mean pixel intensity compared to AP control [1],effect on SP thresholds [2],post-treatment ABR thresholds for clicks and pure tones [3],ABR threshold recovery for pure tones (up to) [3],ABR threshold recovery for clicks [3],other results
"OC[C@H]1O[C@@H](n2cnc3c(NC4CCCC4)nc(Cl)nc32)[C@H](O)[C@@H]1O [CCPA, 2-Chloro-N^6-cyclopentyladenosine]",22-45%,did not affect SP thresholds,markedly improved ABR thresholds,up to 20 dB,20 dB,
"CCNC(=O)[C@H]1O[C@@H](n2cnc3c(N)nc(NCCc4ccc(CCC(=O)O)cc4)nc32)[C@H](O)[C@@H]1O [CGS-21680, 2-p-(2-Carboxyethyl)phenethylamino-5′-N-ethylcarboxamidoadenosine hydrochloride hydrate]",,,remained unchanged,,,"reduction of SP thresholds ([2]; at 16 kHz, CGS-21680 200 μM RWM perfusion, p<0.01): 5 dB; threshold recovery ([3]; CGS-21680 200 μM onto RWM 6 hours after noise, FIG. 11(f)): did not affect threshold recovery"
"C[C@H](Cc1ccccc1)Nc1ncnc2c1ncn2[C@@H]1O[C@H](CO)[C@@H](O)[C@H]1O [R-PIA, R—N6-phenylisopropyladenosine]",,,,,,survival of the outer hair cells (noise-exposed cochlea): increased survival of the outer hair cells; preservation of auditory thresholds (noise-exposed cochlea; topical to RWM): better preservation of auditory thresholds
"Nc1nc2c(cnn2CCc2ccccc2)c2nc(-c3ccco3)nn12 [SCH-58261, 7-(2-phenylethyl)-5-amino-2-(2-furyl)-pyrazolo-[4,3-e]-1,2,4-triazolo[1,5-c]pyrimidine]",,,,,,effect on the CGS-21680 reduction of SP thresholds ([2]; SCH-58261 200 μM in combination with CGS-21680): inhibited
Nc1ncnc2c1ncn2[C@@H]1O[C@H](CO)[C@@H](O)[C@H]1O [adenosine],30-42%,did not affect SP thresholds,markedly improved ABR thresholds,up to 19 dB,18 dB,effect on CAP thresholds [4]: not altered
